Assay results: paper PMC7617969, “Carboxylic Acid Bioisosteres Boost Nurr1 Agonist Selectivity” (Journal of medicinal chemistry, 2025)
“And” between values parts separate entries of the source, which are not always exact repeats. Identical values can stand only once.

Key:
Nurr1 = target: T1, Nurr1 (Homo sapiens, UniProt P43354); test: Gal4-Nurr1 hybrid reporter gene assay; format: cell-based
T1 construct: expressed in transfected cells; host or cells: HEK293T

recombinant Nurr1 LBD = target: T2, recombinant Nurr1 LBD (Homo sapiens, UniProt P43354); test: Isothermal titration calorimetry (ITC); format: binding; settings: 25 °C
T2 construct: Nurr1 LBD protein (15 μM, expressed as described previously[18]); made in house
T2 sequence (P43354 360-595 limits assumed): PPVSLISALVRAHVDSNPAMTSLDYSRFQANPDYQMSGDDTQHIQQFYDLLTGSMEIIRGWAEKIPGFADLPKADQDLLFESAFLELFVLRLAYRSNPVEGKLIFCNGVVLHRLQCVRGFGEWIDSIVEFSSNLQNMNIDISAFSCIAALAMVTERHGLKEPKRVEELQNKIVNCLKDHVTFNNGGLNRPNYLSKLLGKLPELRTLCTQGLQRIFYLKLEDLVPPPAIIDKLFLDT
Description: ITC experiments were conducted on an Affinity ITC instrument (TA Instruments, New Castle, DE, USA) at 25 °C with a stirring rate of 75 rpm. Nurr1 LBD protein (15 μM, expressed as described previously[18]) in buffer (20 mM Tris, pH 7.5, 100 mM NaCl, 5% glycerol) containing 5% DMSO was titrated with 32 (100 μM in the same buffer containing […]) in 21 injections (1 × 1 µL and 20 × 4 μL) with an injection interval of 120 s. As control experiments, the test compound was titrated to the buffer, and the buffer was titrated to the Nurr1 LBD protein under otherwise identical conditions. The heats of the compound−protein titration were analyzed using NanoAnalyze software (version 3.11.0, TA Instruments) with independent binding model.

Nurr1 LBD homodimer = target: T3, Nurr1 LBD homodimer (Homo sapiens, UniProt P43354); test: Nurr1 homodimerization assay (HTRF); format: biochemical; settings: Tb3+-cryptate labeled Nurr1 LBD and sGFP labeled Nurr1 LBD
T3 construct: Biotinylated recombinant Nurr1 LBD protein and sGFP-Nurr1 LBD protein (FRET acceptor) were expressed and purified as described previously[28]; sGFP-Nurr1 LBD protein (FRET acceptor) were expressed and purified as described previously[28]; made in house
T3 sequence (P43354 360-595 limits assumed): as above
Description: Modulation of Nurr1 LBD homodimerization by 32 was studied in a homogenous time-resolved fluorescence resonance energy transfer (HTRF) based assay. Biotinylated recombinant Nurr1 LBD protein and sGFP-Nurr1 LBD protein (FRET acceptor) were expressed and purified as described previously. […] Free sGFP was added to keep the total GFP content stable at 0.5 μM. Assay solutions were prepared in HTRF assay buffer (25 mM HEPES pH 7.5, 10% (m/v) glycerol, 5 mM DTT) supplemented with 0.1% (w/v) CHAPS as well as 1% DMSO with 32 at fixed concentrations or DMSO alone as negative control (apo). The FRET donor complex formed from biotinylated Nurr1 LBD (final concentration 0.188 nM) and Tb-SA (0.375 nM) was kept constant while the concentration of sGFP-labeled protein was varied. Samples were equilibrated at RT for 2 h before fluorescence intensities (FI) after excitation at 340 nm were recorded at 520 nm for sGFP acceptor fluorescence and 620 nm for Tb-SA donor fluorescence on a Tecan SPARK plate reader (Tecan Group Ltd.). FI520 nm was divided by FI620 nm and multiplied with 10,000 to give a dimensionless HTRF signal.

NOR1 = target: T4, NOR1 (Homo sapiens, UniProt Q92570); test: Gal4-NOR1 hybrid reporter gene assay; format: cell-based
T4 construct: expressed in transfected cells; host or cells: HEK293T
T4 sequence (Q92570 394-623 limits assumed): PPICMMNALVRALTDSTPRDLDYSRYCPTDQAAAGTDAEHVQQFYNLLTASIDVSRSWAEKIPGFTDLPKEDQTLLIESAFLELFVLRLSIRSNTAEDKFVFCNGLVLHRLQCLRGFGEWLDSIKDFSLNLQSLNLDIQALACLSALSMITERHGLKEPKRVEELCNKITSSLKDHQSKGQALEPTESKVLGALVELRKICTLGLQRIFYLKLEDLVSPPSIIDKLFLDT
Description: NR modulation was determined in Gal4 hybrid reporter gene assays in HEK293T cells (German Collection of Microorganisms and Cell Culture GmbH, DSMZ) using pFR-Luc (Stratagene, La Jolla, CA, USA; reporter), pRL-SV40 (Promega, Madison, WI, USA; internal control) and pFA-CMV-hNR-LBD[47],[48] plasmids coding for the hinge region and ligand binding domain of the canonical isoform of the respective NR. Cells were cultured in Dulbecco’s modified Eagle’s medium (DMEM), high glucose supplemented with 10% fetal calf serum (FCS), sodium pyruvate (1 mM), penicillin (100 U/mL), and streptomycin (100 μg/mL) at 37°C and 5% CO2 and seeded in 96-well plates (3×10^4 cells/well). […] Five hours after transfection, cells were incubated with the test compounds in Opti-MEM supplemented with penicillin (100 U/mL), streptomycin (100 μg/mL) and 0.1% DMSO for 16 h before luciferase activity was measured using the Dual-Glo Luciferase Assay System (Promega) according to the manufacturer’s protocol on a Tecan Spark luminometer (Tecan Deutschland GmbH, Crailsheim, Germany). Firefly luminescence was divided by Renilla luminescence and multiplied by 1000 resulting in relative light units (RLU) to normalize for transfection efficiency and cell growth. […]

T1 sequence (P43354 360-595 limits assumed): as the sequence (P43354 360-595 limits assumed) above

For `COc1cccc(-c2ccc(NC(=O)C3=C(c4nn[nH]n4)CCC3)c(F)c2)c1` [compound 32, N-{3-Fluoro-3’-methoxy-[1,1'-biphenyl]-4-yl}-2-(2H-tetrazol-5-yl)cyclopent-1-ene-1-carboxamide], the “Nurr1 preference/selectivity over DHODH” value (Nurr1) was over 100 fold, the EC50 (Nurr1; Gal4-Nurr1 hybrid reporter gene assay, HEK293T cells, mean ± S.E.M., n ≥ 3) was 90 ± 10 nM and the “max. activation (Nurr1)” value (Nurr1; Gal4-Nurr1 hybrid reporter gene assay, fold activation vs untreated control) was 2.5 fold and 2.5±0.1 fold. The “selectivity index DHODH/Nurr1” value (Nurr1; IC50(DHODH) / EC50(Nurr1)) was 110, the efficacy_NR4A2 (Nurr1; supplementary csv, max. activation in %) was 250% and the Kd (recombinant Nurr1 LBD) was 200 nM. The “impact on Nurr1 dimer formation” value (Nurr1 LBD homodimer) was “robustly diminished Nurr1 dimer formation”, the EC50 (NOR1) was 120 ± 10 nM and the “fold activation (NOR1)” value (NOR1) was 1.8 fold.
